Here are results for 23 molecules from patent publication US10669272B2, “Substituted naphthyridinone compounds useful as T cell activators” (BRISTOL-MYERS SQUIBB COMPANY, priority 2018, dated 2020).

Read-outs that look alike come from different tables or passages of the source.

As usually defined, the IC50 is the concentration that inhibits the measured activity by half. The term EC50 denotes the midpoint of the concentration-response curve.

For assay [1], the target named is T1, human DGKα (Homo sapiens, UniProt P23743).
T1 construct: TVMV protease cleavage site (C); Hexa-His (C); made in house; host or cells: Sf9 insect cells (baculovirus, Bac-to-Bac)
T1 sequence (P23743 with tags, fused parts or gaps): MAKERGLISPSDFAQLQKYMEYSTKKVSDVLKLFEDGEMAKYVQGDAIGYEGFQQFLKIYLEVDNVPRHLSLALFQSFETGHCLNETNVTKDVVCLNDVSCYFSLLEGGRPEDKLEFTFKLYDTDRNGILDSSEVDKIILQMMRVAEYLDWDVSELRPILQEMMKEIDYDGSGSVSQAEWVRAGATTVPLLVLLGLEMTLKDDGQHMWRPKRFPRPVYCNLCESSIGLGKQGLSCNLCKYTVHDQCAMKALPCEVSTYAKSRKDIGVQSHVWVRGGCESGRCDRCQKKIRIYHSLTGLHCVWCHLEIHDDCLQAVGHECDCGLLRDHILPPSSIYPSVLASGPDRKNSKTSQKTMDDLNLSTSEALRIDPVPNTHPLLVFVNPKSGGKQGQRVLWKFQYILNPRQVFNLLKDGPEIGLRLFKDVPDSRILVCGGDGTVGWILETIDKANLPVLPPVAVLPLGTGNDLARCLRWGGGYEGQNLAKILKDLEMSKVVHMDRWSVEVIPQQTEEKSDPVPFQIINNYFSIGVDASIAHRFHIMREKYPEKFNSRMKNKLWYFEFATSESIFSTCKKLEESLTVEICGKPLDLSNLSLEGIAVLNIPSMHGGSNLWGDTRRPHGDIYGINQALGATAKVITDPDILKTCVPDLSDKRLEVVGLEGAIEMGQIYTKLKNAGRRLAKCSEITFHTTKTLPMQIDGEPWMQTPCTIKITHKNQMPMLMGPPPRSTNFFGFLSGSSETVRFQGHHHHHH
Briefly: DGKα LIPGLO assay (extruded liposome substrate), in vitro DGK inhibition. The format is biochemical. The conditions noted are these: read-out: DGKa LIPGLO IC50.

The target of assay [2] is T2, human DGKζ (Homo sapiens, UniProt Q13574).
T2 construct: TVMV protease cleavage site (C); Hexa-His (C); made in house; host or cells: Sf9 insect cells (baculovirus, Bac-to-Bac)
T2 sequence (Q13574 with tags, fused parts or gaps isoform Q13574-4): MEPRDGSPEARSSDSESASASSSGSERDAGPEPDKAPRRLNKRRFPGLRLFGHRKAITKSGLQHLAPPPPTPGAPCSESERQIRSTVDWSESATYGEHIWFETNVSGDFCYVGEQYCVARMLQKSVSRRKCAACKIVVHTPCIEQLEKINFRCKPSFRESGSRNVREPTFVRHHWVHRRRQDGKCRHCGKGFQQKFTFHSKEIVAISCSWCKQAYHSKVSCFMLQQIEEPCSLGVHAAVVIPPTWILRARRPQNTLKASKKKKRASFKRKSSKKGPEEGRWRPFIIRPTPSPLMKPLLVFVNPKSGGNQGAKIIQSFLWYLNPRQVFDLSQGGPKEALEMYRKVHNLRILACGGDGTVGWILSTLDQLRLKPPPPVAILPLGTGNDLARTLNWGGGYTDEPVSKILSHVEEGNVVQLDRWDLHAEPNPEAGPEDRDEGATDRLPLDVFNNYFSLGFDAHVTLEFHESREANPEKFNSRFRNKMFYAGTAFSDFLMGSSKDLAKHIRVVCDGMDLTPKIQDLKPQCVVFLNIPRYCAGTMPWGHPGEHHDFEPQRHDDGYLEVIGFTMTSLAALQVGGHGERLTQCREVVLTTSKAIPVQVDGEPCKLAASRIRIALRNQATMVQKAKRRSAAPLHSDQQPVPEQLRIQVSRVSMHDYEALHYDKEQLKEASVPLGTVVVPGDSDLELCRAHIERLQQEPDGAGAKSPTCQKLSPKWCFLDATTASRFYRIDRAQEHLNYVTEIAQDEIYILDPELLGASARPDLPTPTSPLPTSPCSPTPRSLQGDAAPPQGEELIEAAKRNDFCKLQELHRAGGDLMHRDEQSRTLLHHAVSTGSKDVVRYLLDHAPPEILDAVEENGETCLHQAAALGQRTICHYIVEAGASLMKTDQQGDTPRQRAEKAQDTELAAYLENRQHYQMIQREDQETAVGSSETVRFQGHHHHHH
Briefly: DGKζ LIPGLO assay (extruded liposome substrate), in vitro DGK inhibition. Conditions: read-out: DGKz LIPGLO IC50. The format is biochemical.

The subject of assay [3] is Human venous whole blood. Briefly: Human whole blood IFN-γ assay.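 Further: blood from healthy donors exposed to compound for 1 h before stimulation with anti-CD3 and anti-CD28 at 1 µg/mL each, IFN-γ quantified in supernatant by AlphaLISA.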 The conditions noted are these: human whole blood, read-out: INFg Whole Blood Normalized Agonist EC50. The format is cell-based.
Experimental: Human Whole Blood IFN-γ Assay
Human venous whole blood (22.5 μL per well), obtained from healthy donors, was pre-treated with compounds for one hour at 37° C. in a humidified 95% air/5% CO2 incubator. The blood was stimulated with 2.5 μL anti-human CD3 and anti-CD28 mAb at a final concentration of 1 μg/mL each for 24 hours at 37° C. IFN-γ in the supernatants was measured using AlphLISA kit (Cat # AL217).
[4] abbreviates: normalized to 3 μM reference compound with anti-CD3 plus anti-CD28 as 100% activation.
[5] abbreviates: Homo sapiens, 24 h, anti-CD3 plus anti-CD28, 24 hours, 3 μM reference compound = 100% activation.
Where [6] appears, read: Homo sapiens, 24 h, normalized to 3 μM reference compound with anti-CD3 plus anti-CD28 as 100% activation.

On to `C[C@@H]1CN(c2c(F)c(=O)n(C)c3ccc(C#N)nc23)[C@@H](C)CN1C(c1ccc(Cl)cc1)c1ccc(OC(F)(F)F)cc1` (stereo partly drawn) [Example 324, 8-((2S,5R)-4-((4-chlorophenyl)(4-(trifluoromethoxy)phenyl)methyl)-2,5-dimethylpiperazin-1-yl)-7-fluoro-5-methyl-6-oxo-5,6-dihydro-1,5-naphthyridine-2-carbonitrile], for which the IC50 in assay [1] (liposome (LIPGLO) assay) came to 1200 nM; in assay [2] (liposome (LIPGLO) assay), 4100 nM. Also, the concentration for a half-maximal effect (EC50) in assay [3] (setting [4]) stood at 4700 nM.
As for `C[C@@H]1CN(c2c(C#N)c(=O)n(C)c3ccc(C#N)nc23)[C@@H](C)CN1C(c1ccccc1)c1ccc(Cl)cc1` (stereo partly drawn) [Example 834], the IC50 in assay [1] (DGKα liposome (LIPGLO) assay) amounted to 22000 nM; in assay [2] (DGKζ liposome (LIPGLO) assay), 6000 nM. Also, the EC50 in assay [3] (anti-CD3 plus anti-CD28, 24 hours, 3 μM reference compound = 100% activation) is 3600 nM.
For the molecule `CC(c1ccc(OC(F)(F)F)cc1)N1C[C@H](C)N(c2cc(=O)n(C)c3ccc(C#N)nc23)C[C@H]1CO` (single isomer, unassigned) [Example 1387], the half-maximal inhibitory concentration (IC50) in assay [1] (liposome (LIPGLO) assay) was determined as 2600 nM; in assay [2] (liposome (LIPGLO) assay), 12000 nM. Moreover, the EC50 in assay [3] (setting [4]) was determined as 20000 nM.
`Cc1ccc(F)cc1CN1CCN(c2c(C#N)c(=O)n(C)c3ccc(C#N)nc23)C[C@H]1C` [Example 1001]: the IC50 was 1500 nM in assay [1] (DGKα liposome (LIPGLO) assay) and 4600 nM in assay [2] (DGKζ liposome (LIPGLO) assay). In addition, the EC50 in assay [3] (setting [5]) amounted to 4700 nM.
For the molecule `C[C@@H]1CN(c2cc(=O)n(C)c3ccc(C#N)nc23)[C@@H](C)CN1C1(c2ccc(F)cc2)CC1` [Example 1454, 8-((2S,5R)-4-(1-(4-fluorophenyl)cyclopropyl)-2,5-dimethylpiperazin-1-yl)-5-methyl-6-oxo-5,6-dihydro-1,5-naphthyridine-2-carbonitrile], the IC50 in assay [1] (liposome (LIPGLO) assay) was determined as 1600 nM; in assay [2] (liposome (LIPGLO) assay), 45000 nM. The EC50 in assay [3] (setting [6]) worked out at 10000 nM.
Take `CC[C@@H]1CN(c2cc(=O)n(C)c3ccc(C#N)nc23)[C@@H](C)CN1Cc1ccc(OC(F)(F)F)cc1OC` [Example 1081]: the IC50 in assay [1] (liposome (LIPGLO) assay) came out at 1500 nM; in assay [2] (liposome (LIPGLO) assay), 680 nM. In assay [3] (setting [6]), the half-maximal effective concentration (EC50) came to 250 nM.
As for `Cc1cccc(C(C)N2CCN(c3c(C#N)c(=O)n(C)c4ccc(C#N)nc34)C[C@H]2C)n1` (stereo partly drawn) [Example 964], the IC50 in assay [1] (DGKα liposome (LIPGLO) assay) is 1900 nM; in assay [2] (DGKζ liposome (LIPGLO) assay), 32000 nM. The EC50 in assay [3] (setting [5]) was determined as 13000 nM.
As to `CC[C@@H]1CN(c2cc(=O)n(C)c3ccc(C#N)nc23)[C@@H](C)CN1C(c1ccc(OC(F)(F)F)cc1)c1ccccn1` (single isomer, unassigned) [Example 341], the half-maximal inhibitory concentration (IC50) was 69 nM in assay [1] (liposome (LIPGLO) assay) and 550 nM in assay [2] (liposome (LIPGLO) assay). Further, the 50% effective concentration (EC50) in assay [3] (setting [4]) was 120 nM.
In the case of `CCC(c1ccc(OC(F)(F)F)cc1F)N1C[C@H](C)N(c2cc(=O)n(C)c3ccc(C#N)nc23)C[C@H]1CC` (single isomer, unassigned) [Example 421], the half-inhibitory concentration (IC50) came to 7800 nM in assay [1] (liposome (LIPGLO) assay) and 1800 nM in assay [2] (liposome (LIPGLO) assay). Moreover, the half-maximal effective concentration (EC50) in assay [3] (setting [4]) amounted to 2600 nM.
For `Cn1c(=O)cc(N2CCN(C(c3ccc(F)cc3)c3ccc(F)cc3)CC2c2ccccc2)c2nc(C#N)ccc21` (single isomer, unassigned) [Example 155, 8-(4-(bis(4-fluorophenyl)methyl)-2-phenylpiperazin-1-yl)-5-methyl-6-oxo-5,6-dihydro-1,5-naphthyridine-2-carbonitrile], the half-maximal inhibitory concentration (IC50) in assay [1] (liposome (LIPGLO) assay) and in assay [2] (liposome (LIPGLO) assay) was 240000 nM in each case. Also, the EC50 in assay [3] (setting [4]) stood at 20000 nM.
Consider `C[C@@H]1CN(c2cc(=O)n(C)c3ccc(C#N)nc23)[C@@H](C)CN1Cc1cc(-c2ccccc2)no1` [Example 1425], for which the IC50 in assay [1] (liposome (LIPGLO) assay) was 5900 nM; in assay [2] (liposome (LIPGLO) assay), 4900 nM. In assay [3] (setting [6]), the half-maximal effective concentration (EC50) amounted to 20000 nM.
In the case of `CC[C@H]1CN(C(c2ccc(F)cc2)c2ccon2)[C@H](CC)CN1c1cc(=O)n(C)c2ccc(C#N)nc12` (single isomer, unassigned) [Example 1073], the results for the IC50 in assay [1] (liposome (LIPGLO) assay) and in assay [2] (liposome (LIPGLO) assay) were 33 nM and 120 nM, respectively. Also, the EC50 in assay [3] (setting [4]) amounted to 210 nM.
As to `C[C@@H]1CN(c2cc(=O)n(C)c3ccc(C#N)nc23)[C@@H](C)CN1C(c1ccc(F)cc1)c1cccc(N2CCOCC2)c1` (single isomer, unassigned) [Example 672], the concentration for half-maximal inhibition (IC50) in assay [1] (liposome (LIPGLO) assay) stood at 92000 nM; in assay [2] (liposome (LIPGLO) assay) it was 1700 nM. For the same molecule, in assay [3] (setting [4]), the half-maximal effective concentration (EC50) turned out to be 9500 nM.
Turning to `C[C@@H]1CN(c2cc(=O)n(C)c3ccc(C#N)nc23)[C@@H](C)CN1C(c1ccc(F)cc1)c1nc(C2CN(C)C2)no1` (single isomer, unassigned) [Example 1299], the IC50 in assay [1] (liposome (LIPGLO) assay) is 89000 nM; in assay [2] (liposome (LIPGLO) assay), 26000 nM. Also, the EC50 in assay [3] (setting [4]) was 15000 nM.
On to `C[C@@H]1CN(c2cc(=O)n(C)c3ccc(C#N)nc23)[C@@H](C)CN1C(c1ccc(F)cc1)c1cc(C2CC2)on1` (single isomer, unassigned) [Example 729], for which the IC50 in assay [1] (DGKα liposome (LIPGLO) assay) is 1100 nM; in assay [2] (DGKζ liposome (LIPGLO) assay), 1800 nM. Also, the half-maximal effective concentration (EC50) in assay [3] (setting [5]) stood at 2200 nM.
Regarding `CC(c1ccc(OC(F)(F)F)c(F)c1)N1C[C@H](C)N(c2cc(=O)n(C)c3ccc(C#N)nc23)C[C@H]1C` (single isomer, unassigned) [Example 1269], the IC50 in assay [1] (liposome (LIPGLO) assay) is 120 nM; in assay [2] (liposome (LIPGLO) assay) it was 470 nM. In addition, in assay [3] (setting [4]), the 50% effective concentration (EC50) was 540 nM.
Regarding `C[C@@H]1CN(c2cc(=O)n(C)c3ccc(C#N)nc23)[C@@H](C)CN1C(c1ccc(F)cc1)c1cc(F)ccn1` (stereo partly drawn) [Example 472, 8-((2S,5R)-4-((4-fluorophenyl)(4-fluoropyridin-2-yl)methyl)-2,5-dimethylpiperazin-1-yl)-5-methyl-6-oxo-5,6-dihydro-1,5-naphthyridine-2-carbonitrile], the values for the IC50 in assay [1] (liposome (LIPGLO) assay) and in assay [2] (liposome (LIPGLO) assay) were 1300 nM and 2900 nM, respectively. In assay [3] (setting [6]), the EC50 was found to be 1300 nM.
`C[C@@H]1CN(c2cc(=O)n(C)c3ccc(C#N)nc23)[C@@H](C)CN1C(c1ccc(F)cc1)c1cnn(C)c1` (single isomer, unassigned) [Example 702]: the IC50 turned out to be 1300 nM in assay [1] (liposome (LIPGLO) assay) and 2900 nM in assay [2] (liposome (LIPGLO) assay). For the same molecule, in assay [3] (setting [4]), the EC50 worked out at 4700 nM.
Consider `CC[C@@H]1CN(c2cc(=O)n(C)c3ccc(C#N)nc23)[C@@H](C)CN1Cc1ccc(F)cc1Cl` [Example 1078], for which the concentration for half-maximal inhibition (IC50) in assay [1] (liposome (LIPGLO) assay) is 2700 nM; in assay [2] (liposome (LIPGLO) assay) it was 110 nM. Further, the EC50 in assay [3] (setting [6]) is 970 nM.
Turning to `CCC(c1ccc(OC(F)(F)F)cc1F)N1C[C@H](C)N(c2cc(=O)n(C)c3ccc(C#N)nc23)C[C@H]1C` (single isomer, unassigned) [Example 440], the IC50 in assay [1] (liposome (LIPGLO) assay) stood at 81 nM; in assay [2] (liposome (LIPGLO) assay) it was 320 nM. In addition, the 50% effective concentration (EC50) in assay [3] (setting [4]) stood at 1000 nM.
As for `C[C@@H]1CN(c2cc(=O)n(C)c3ccc(C#N)nc23)[C@@H](C)CN1C(c1ccc(F)cc1)c1nccn1C` (stereo partly drawn) [Example 713], the results for the IC50 in assay [1] (liposome (LIPGLO) assay) and in assay [2] (liposome (LIPGLO) assay) were 6600 nM and 51000 nM, respectively. Besides, in assay [3] (setting [4]), the EC50 amounted to 13000 nM.
For `CC(C)Oc1ccc(C(C)N2C[C@H](C)N(c3cc(=O)n(C)c4ccc(C#N)nc34)C[C@H]2C)cn1` (single isomer, unassigned) [Example 1325] the same measures were 1300 nM, 910 nM and 1800 nM.
Take `Cc1ccc(C(c2ncccc2F)N2CCN(c3c(C#N)c(=O)n(C)c4ccc(C#N)nc34)C[C@H]2C)cc1` (single isomer, unassigned) [Example 890]: the 50% inhibitory concentration (IC50) is 11000 nM in assay [1] (DGKα liposome (LIPGLO) assay) and 8400 nM in assay [2] (DGKζ liposome (LIPGLO) assay). The concentration for a half-maximal effect (EC50) in assay [3] (setting [5]) came out at 6600 nM.
